Measurements: patent publication EP0908457B1, “3-(1,2-benzisothiazol- and isoxazol-5-Y1)-2,4(1H,3H)-pyrimidinedione or thione and 3-(1,2-benzisothiazol- and isoxazol-5-y1)-4(3H)-pyrimidinone or thione herbicidal agents” (BASF AKTIENGESELLSCHAFT, priority 1997, dated 1999)

Assays:
[1] = test system: Echinochloa oryzoides (Ard.) Fritsch.; assay: Preemergence weed control under flooded paddy conditions, ECHORC (Watergrass (Calif.)); assay type: in vivo; settings: flooded paddy; for herbicidal effect rating, ECHORC / ECHORC herbicidal rating: preemergence; for ECHORC: preemergence weeds, herbicidal effect rating 0-9, three to four weeks after treatment; as to herbicidal effect rating, ECHORC: meaning of each grade not given here
Cyperus iria = assay: Preemergence weed control under flooded paddy conditions, CYPIR (Rice Flatsedge); assay type: in vivo; settings: flooded paddy; for herbicidal effect rating, CYPIR / CYPIR herbicidal rating: preemergence; for CYPIR: preemergence weeds, herbicidal effect rating 0-9, three to four weeks after treatment; as to herbicidal effect rating, CYPIR: meaning of each grade not given here
[2] = test system: Cyperus serotinus, Rottb.; assay: Preemergence weed control under flooded paddy conditions, CYPSE (Flatsedge); assay type: in vivo; settings: for herbicidal effect rating, CYPSE / CYPSE herbicidal rating: preemergence; as to herbicidal effect rating, CYPSE: meaning of each grade not given here
[3] = test system: Monochoria vaginalis, Presl.; assay: Preemergence weed control under flooded paddy conditions, MOOVA (Monochoria); assay type: in vivo; settings: flooded paddy; for herbicidal effect rating, MOOVA / MOOVA herbicidal rating: preemergence; for MOOVA: preemergence weeds, herbicidal effect rating 0-9, three to four weeks after treatment; as to herbicidal effect rating, MOOVA: meaning of each grade not given here
Sagittaria pygmaea, L. = assay: Preemergence weed control under flooded paddy conditions, SAGPY (Arrowhead (Pygmaea)); assay type: in vivo; settings: flooded paddy; for herbicidal effect rating, SAGPY / SAGPY herbicidal rating: preemergence; for SAGPY: preemergence weeds, herbicidal effect rating 0-9, three to four weeks after treatment; as to herbicidal effect rating, SAGPY: meaning of each grade not given here
[4] = test system: Oryza sativa, (L.) Tebonnet; assay: Rice tolerance to post-transplant applications under flooded paddy conditions (Example 187), ORYSAT (Rice, Tebonnet); settings: for herbicidal effect rating, ORYSAT (rice tolerance) / ORYSAT herbicidal rating (rice tolerance): rated three to four weeks after treatment; for ORYSAT: herbicidal effect rating 0-9, three to four weeks after treatment; for herbicidal effect rating ORYSAT: rated 3-4 weeks after treatment; as to herbicidal effect rating ORYSAT: meaning of each grade not given here
[5] = 0.0313 kg/ha, rated three to four weeks after treatment
[6] = 0.0625 kg/ha, rated three to four weeks after treatment
[7] = 0.1250 kg/ha, rated three to four weeks after treatment
[8] = 0.2500 kg/ha, rated three to four weeks after treatment
[9] = 0.0320 kg/ha, rated three to four weeks after treatment
[10] = 0.0620 kg/ha, rated three to four weeks after treatment
[11] = Rate 0.0320 kg/ha, rated 3-4 weeks after treatment
[12] = Rate 0.0620 kg/ha, rated 3-4 weeks after treatment
[13] = Rate 0.1250 kg/ha, rated 3-4 weeks after treatment
[14] = Rate 0.2500 kg/ha, rated 3-4 weeks after treatment
[15] = Rate 0.5000 kg/ha, rated 3-4 weeks after treatment

For CCN(CC)C(=O)COc1ccc(C)cc1-c1nsc2ccc(-n3c(=O)cc(C(F)(F)F)n(C)c3=O)cc12 [Example 60, 3-{3-{6-[(Diethylcarbamoyl)methoxy]-m-tolyl}-1,2-benzisothiazol-5-yl}-1-methyl-6-(trifluoromethyl)-2,4(1H,3H)-pyrimidinedione], the “herbicidal effect rating, ECHORC” value [1, 5] was 2.0, the “herbicidal effect rating, ECHORC” value [1, 6] was 4.0 and the “herbicidal effect rating, ECHORC” value [1, 7] was 8.0. For the same molecule, the “herbicidal effect rating, ECHORC” value [1, 8] was 9.0, the “herbicidal effect rating, CYPIR” value (Cyperus iria; [5]) was 0.0 and the “herbicidal effect rating, CYPIR” value (Cyperus iria; [6]) was 0.0. The “herbicidal effect rating, CYPIR” value (Cyperus iria; [7]) was 0.0, the “herbicidal effect rating, CYPIR” value (Cyperus iria; [8]) was 0.0 and the “herbicidal effect rating, CYPSE” value [2, 5] was 0.0. The “herbicidal effect rating, CYPSE” value [2, 6] was 0.0, the “herbicidal effect rating, CYPSE” value [2, 7] was 0.0 and the “herbicidal effect rating, CYPSE” value [2, 8] was 0.0. For the same molecule, the “herbicidal effect rating, MOOVA” value [3, 5] was 9.0, the “herbicidal effect rating, MOOVA” value [3, 6] was 9.0 and the “herbicidal effect rating, MOOVA” value [3, 7] was 9.0. The “herbicidal effect rating, MOOVA” value [3, 8] was 9.0, the “herbicidal effect rating, SAGPY” value (Sagittaria pygmaea, L.; [5]) was 0.0 and the “herbicidal effect rating, SAGPY” value (Sagittaria pygmaea, L.; [6]) was 0.0. For the same molecule, the “herbicidal effect rating, SAGPY” value (Sagittaria pygmaea, L.; [7]) was 0.0, the “herbicidal effect rating, SAGPY” value (Sagittaria pygmaea, L.; [8]) was 0.0 and the “herbicidal effect rating, ORYSAT (rice tolerance)” value (shortened to “herbicidal effect rating, ORYSAT”) ([4]; 0.0313 kg/ha) was 0.0. For the same molecule, the “herbicidal effect rating, ORYSAT” value ([4]; 0.0625 kg/ha) was 0.0, the “herbicidal effect rating, ORYSAT” value ([4]; 0.1250 kg/ha) was 0.0 and the “herbicidal effect rating, ORYSAT” value ([4]; 0.2500 kg/ha) was 0.0.
In the case of CN(Cc1ccc(Cl)cc1)S(=O)(=O)NC(=O)c1nsc2ccc(-n3c(=O)cc(C(F)(F)F)n(C)c3=O)cc12 [Example 420, 1,2-Benzisothiazole-3-carboxamide, N-[(p-chlorobenzyl)methylsulfamoyl]-5-[3,6-dihydro-3-methyl-2,6-dioxo-4-(trifluoromethyl)-1(2H)-pyrimidinyl]-], the ECHORC ([1]; 0.0320 kg/ha) is reported as 7.0, the ECHORC ([1]; 0.0620 kg/ha) is reported as 7.0 and the ECHORC ([1]; 0.1250 kg/ha) is reported as 7.0. For the same molecule, the ECHORC ([1]; 0.2500 kg/ha) was 7.0, the CYPIR (Cyperus iria; 0.0320 kg/ha) was 2.0 and the CYPIR (Cyperus iria; 0.0620 kg/ha) was 4.0. For the same molecule, the CYPIR (Cyperus iria; 0.1250 kg/ha) was 6.0, the CYPIR (Cyperus iria; 0.2500 kg/ha) was 6.0 and the CYPSE ([2]; 0.2500 kg/ha, preemergence weeds, herbicidal effect rating 0-9, three to four weeks after treatment) was 0.0. For the same molecule, the MOOVA ([3]; 0.0320 kg/ha) was 9.0, the MOOVA ([3]; 0.0620 kg/ha) was 9.0 and the MOOVA ([3]; 0.1250 kg/ha) was 9.0. For the same molecule, the MOOVA ([3]; 0.2500 kg/ha) was 9.0, the SAGPY (Sagittaria pygmaea, L.; 0.0320 kg/ha) was 0.0 and the SAGPY (Sagittaria pygmaea, L.; 0.0620 kg/ha) was 0.0. It also gave an SAGPY (Sagittaria pygmaea, L.; 0.1250 kg/ha) of 2.0, an SAGPY (Sagittaria pygmaea, L.; 0.2500 kg/ha) of 3.0 and an ORYSAT ([4]; 0.0320 kg/ha) of 0.0. For the same molecule, the ORYSAT ([4]; 0.0620 kg/ha) was 2.0, the ORYSAT ([4]; 0.1250 kg/ha) was 3.0 and the ORYSAT ([4]; 0.2500 kg/ha) was 5.0.
For COC(=O)C(C)Oc1c(C)cc(C)cc1-c1nsc2ccc(-n3c(=O)cc(C(F)(F)F)n(C)c3=O)cc12 (stereo not drawn) [Example 27, Methyl 2-{{6-{5-[3,6-dihydro-3-methyl-2,6-dioxo-4-(trifluoromethyl)-1(2H)-pyrimidinyl]-1,2-benzisothiazol-3-yl}-2,4-xylyl}oxy}propionate], the “herbicidal effect rating, ECHORC” value [1, 5] was 6.0, the “herbicidal effect rating, ECHORC” value [1, 6] was 7.0 and the “herbicidal effect rating, ECHORC” value [1, 7] was 9.0. For the same molecule, the “herbicidal effect rating, ECHORC” value [1, 8] was 9.0, the “herbicidal effect rating, CYPIR” value (Cyperus iria; [5]) was 2.0 and the “herbicidal effect rating, CYPIR” value (Cyperus iria; [6]) was 4.0. For the same molecule, the “herbicidal effect rating, CYPIR” value (Cyperus iria; [7]) was 6.0, the “herbicidal effect rating, CYPIR” value (Cyperus iria; [8]) was 9.0 and the “herbicidal effect rating, CYPSE” value [2, 5] was 0.0. For the same molecule, the “herbicidal effect rating, CYPSE” value [2, 6] was 0.0, the “herbicidal effect rating, CYPSE” value [2, 7] was 0.0 and the “herbicidal effect rating, CYPSE” value [2, 8] was 2.0. The “herbicidal effect rating, MOOVA” value [3, 5] was 8.0, the “herbicidal effect rating, MOOVA” value [3, 6] was 9.0 and the “herbicidal effect rating, MOOVA” value [3, 7] was 9.0. For the same molecule, the “herbicidal effect rating, MOOVA” value [3, 8] was 9.0, the “herbicidal effect rating, SAGPY” value (Sagittaria pygmaea, L.; [5]) was 0.0 and the “herbicidal effect rating, SAGPY” value (Sagittaria pygmaea, L.; [6]) was 0.0. For the same molecule, the “herbicidal effect rating, SAGPY” value (Sagittaria pygmaea, L.; [7]) was 2.0, the “herbicidal effect rating, SAGPY” value (Sagittaria pygmaea, L.; [8]) was 4.0 and the “herbicidal effect rating, ORYSAT” value ([4]; 0.0313 kg/ha) was 2.0. The “herbicidal effect rating, ORYSAT” value ([4]; 0.0625 kg/ha) was 3.0, the “herbicidal effect rating, ORYSAT” value ([4]; 0.1250 kg/ha) was 5.0 and the “herbicidal effect rating, ORYSAT” value ([4]; 0.2500 kg/ha) was 6.0.
Cn1c(C(F)(F)F)cc(=O)n(-c2ccc3snc(C(=O)NS(=O)(=O)/C=C/c4ccccc4)c3c2)c1=O [Example 501, 1,2-Benzisothiazole-3-carboxamide, 5-[3,6-dihydro-3-methyl-2,6-dioxo-4-(trifluoromethyl)-1(2H)-pyrimidinyl]-N-(styrylsulfonyl)-, (E)-] was tested, and the ECHORC herbicidal rating [1, 9] was 4.0, the ECHORC herbicidal rating [1, 10] was 5.0 and the ECHORC herbicidal rating [1, 7] was 5.0. For the same molecule, the ECHORC herbicidal rating [1, 8] was 7.0, the CYPIR herbicidal rating (Cyperus iria; [9]) was 0.0 and the CYPIR herbicidal rating (Cyperus iria; [10]) was 2.0. It also gave a CYPIR herbicidal rating (Cyperus iria; [7]) of 4.0, a CYPIR herbicidal rating (Cyperus iria; [8]) of 6.0 and a CYPSE herbicidal rating [2, 9] of 0.0. It also gave a CYPSE herbicidal rating [2, 10] of 0.0, a CYPSE herbicidal rating [2, 7] of 3.0 and a CYPSE herbicidal rating [2, 8] of 5.0. For the same molecule, the MOOVA herbicidal rating [3, 9] was 6.0, the MOOVA herbicidal rating [3, 10] was 6.0 and the MOOVA herbicidal rating [3, 7] was 7.0. The MOOVA herbicidal rating [3, 8] was 9.0, the SAGPY herbicidal rating (Sagittaria pygmaea, L.; [9]) was 2.0 and the SAGPY herbicidal rating (Sagittaria pygmaea, L.; [10]) was 3.0. For the same molecule, the SAGPY herbicidal rating (Sagittaria pygmaea, L.; [7]) was 5.0, the SAGPY herbicidal rating (Sagittaria pygmaea, L.; [8]) was 6.0 and the “ORYSAT herbicidal rating (rice tolerance)” value (from here on “ORYSAT herbicidal rating”) ([4]; 0.0320 kg/ha) was 0.0. For the same molecule, the “ORYSAT herbicidal rating” value ([4]; 0.0620 kg/ha) was 1.0, the “ORYSAT herbicidal rating” value ([4]; 0.1250 kg/ha) was 3.0 and the “ORYSAT herbicidal rating” value ([4]; 0.2500 kg/ha) was 4.0.
For Cn1c(C(F)(F)F)cc(=O)n(-c2ccc3snc(-c4ccccc4OCC(=O)C(C)(C)C)c3c2)c1=O [Example 549, 2,4(1H,3H)-Pyrimidinedione, 3-{3-[o-(3,3-dimethyl-2-oxobutoxy)phenyl)-1,2-benzisothiazol-5-yl}-1-methyl-6-(trifluoromethyl)-], the “herbicidal effect rating, ECHORC” value [1, 11] was 3.0, the “herbicidal effect rating, ECHORC” value [1, 12] was 3.6 and the “herbicidal effect rating, ECHORC” value [1, 13] was 5.1. The “herbicidal effect rating, ECHORC” value [1, 14] was 9.0, the “herbicidal effect rating, ECHORC” value [1, 15] was 9.0 and the “herbicidal effect rating, CYPIR” value (Cyperus iria; [11]) was 7.0. The “herbicidal effect rating, CYPIR” value (Cyperus iria; [12]) was 9.0, the “herbicidal effect rating, CYPIR” value (Cyperus iria; [13]) was 9.0 and the “herbicidal effect rating, CYPIR” value (Cyperus iria; [14]) was 9.0. The “herbicidal effect rating, CYPIR” value (Cyperus iria; [15]) was 9.0, the “herbicidal effect rating, CYPSE” value [2, 11] was 0.0 and the “herbicidal effect rating, CYPSE” value [2, 12] was 0.0. The “herbicidal effect rating, CYPSE” value [2, 13] was 2.0, the “herbicidal effect rating, CYPSE” value [2, 14] was 9.0 and the “herbicidal effect rating, CYPSE” value [2, 15] was 9.0. For the same molecule, the “herbicidal effect rating, MOOVA” value [3, 11] was 9.0, the “herbicidal effect rating, MOOVA” value [3, 12] was 9.0 and the “herbicidal effect rating, MOOVA” value [3, 13] was 9.0. For the same molecule, the “herbicidal effect rating, MOOVA” value [3, 14] was 9.0, the “herbicidal effect rating, MOOVA” value [3, 15] was 9.0 and the “herbicidal effect rating, SAGPY” value (Sagittaria pygmaea, L.; [11]) was 0.0. The “herbicidal effect rating, SAGPY” value (Sagittaria pygmaea, L.; [12]) was 0.0, the “herbicidal effect rating, SAGPY” value (Sagittaria pygmaea, L.; [13]) was 4.0 and the “herbicidal effect rating, SAGPY” value (Sagittaria pygmaea, L.; [14]) was 4.0. For the same molecule, the “herbicidal effect rating, SAGPY” value (Sagittaria pygmaea, L.; [15]) was 0.0, the “herbicidal effect rating ORYSAT” value ([4]; Rate 0.0320 kg/ha) was 4.0 and the “herbicidal effect rating ORYSAT” value ([4]; Rate 0.0620 kg/ha) was 4.0. The “herbicidal effect rating ORYSAT” value ([4]; Rate 0.1250 kg/ha) was 4.0, the “herbicidal effect rating ORYSAT” value ([4]; Rate 0.2500 kg/ha) was 4.0 and the “herbicidal effect rating ORYSAT” value ([4]; Rate 0.5000 kg/ha) was 2.0.
